Experimental data reported in patent publication US20140051729A1, “COMPOSITIONS AND METHODS FOR TREATING DEGENERATIVE MUSCLE CONDITIONS” (University of Washington, priority 2011, published 2014).

Key:
[1] = system: dystrophic flies (w; +/+; Dys^det1/Dys^det1); experiment: Myofibril analysis of muscle wasting in dystrophic flies fed S1P promoting agents; assay type: in vivo, Drosophila; settings: 217 μM in feed, three feeding cycles, 10-day old flies, three days after last feeding
Experimental: The effect of THI, a derivative of THI ((E)-1-(4-((1R,2S,3R)-1,2,3,4-tetrahydroxybutyl)-1H-imidazol-2-yl)-ethanone oxime) (“THI-oxime”), and a sphingosine analog (FTY720) on muscle wasting in dystrophic Drosopila flies was observed. Before feeding, 4 day old dystrophic flies (genotype: w; +/+; Dys^det1/Dys^det1) were placed in empty vials and starved for 6 hours. The flies were then provided access to one of a solution of 0.05 mg/mL (217 μM) 2-Acetyl-4(5)-tetrahydroxybutyl Imidazole (THI), or 217 μM FTY720, or 217 μM THI-oxime, in 5% light corn syrup in water for 16-18 hrs. After feeding, the flies were placed in new yeasted vials for 6-7 hrs. Flies were then transferred to empty vials with access to a 217 μM solution of THI, FTY720 or THI-oxime in a 5% light corn syrup in water for 16-18 hrs. This feeding cycle was repeated for a third time. After feeding for three cycles, the flies were placed in new yeasted vials. The 7-day old flies that had been administered the THI-oxime were analyzed immediately after the last feeding. The flies that has been administered THI and FTY720 were analyzed as 10-day old flies, three days after the last feeding with THI and FTY720.
Myofibril immunochemistry analysis was performed as disclosed herein. For each treatment group, 5 flies were analyzed, and 3 muscles per fly and 2 myofibrils per muscle were analyzed. Two tailed Student's t test was used to evaluate significance.
(§1) Flies were dipped in 95% EtOH and then dissected in 1×PBS (pH 7.4). Heads and abdomens were removed, and the thoraxes opened. Samples were stained using a modified ovary staining protocol 3. Samples were then fixed in 5% paraformaldehyde (Electron Microscopy Sciences) for 1 hour, rinsed in PBT (PBS/0.2% Triton X-100 v/v) 4 times, and then blocked for 1 hour in PBTB (PBT, 0.4% BSA w/v, 5% Normal Goat Serum v/v) at room temperature. […] For each genotype, 4-5 flies were analyzed, and 6-7 muscles per fly were analyzed.

[2] = system: Dystrophic mutant flies (TubGal4:UAS-Dys^C-RNAi/+); experiment: Myofibril Projectin immunohistochemistry in dystrophic flies after oral THI; assay type: in vivo, Drosophila melanogaster; settings: 3 days once-daily oral THI, myofibrils from 10 day old flies
Experimental: In mice, the genetic reduction of S1P lyase activity can be phenocopied pharmacologically by the delivery of the small molecule 1-[5-[(1R,2S,3R)-1,2,3,4-tetrahydroxybutyl]-1H-imidazol-2-yl]-ethanone (THI), which inhibits the activity of S1P lyase. Dystrophic mutant flies were administered THI to investigate possible THI suppression of the muscle degeneration phenotype.
as §1, with “temperature. Samples were stained in primary antibody pre-diluted in PBTB (Phalloidin-Alexa-Fluor 568, Invitrogen [mouse, 1:200]; Projectin (Mac150), Babraham Institute [rat, 1:50]) overnight at 4° C., rinsed in PBT 4 times at room temperature (RT), and then stained with secondary antibody pre-diluted in PBTB (Alexa Fluor 488 [mouse, 1:500]) overnight at 4° C.” for “temperature.”, “analyzed. […]” for “analyzed.”

CC(=O)c1ncc([C@@H](O)[C@H](O)[C@H](O)CO)[nH]1 [THI, 1-[5-[(1R,2S,3R)-1,2,3,4-tetrahydroxybutyl]-1H-imidazol-2-yl]-ethanone]
wild-type myofibrils [1]: approximately 67%
suppression of muscle wasting (myofibrils) [2]: significant suppression of muscle wasting
